Test results published in ChEMBL document CHEMBL5291721, “A preclinical secondary pharmacology resource illuminates target-adverse drug reaction associations of marketed drugs” (Nat Commun, 2023).

Assays:
Adenosine receptor A2a = Adenosine receptor A2a (Homo sapiens, UniProt P29274)
Adenosine receptor A3 = target: T1, Adenosine receptor A3 (Homo sapiens, UniProt P0DMS8)
T1 sequence (P0DMS8 whole entry): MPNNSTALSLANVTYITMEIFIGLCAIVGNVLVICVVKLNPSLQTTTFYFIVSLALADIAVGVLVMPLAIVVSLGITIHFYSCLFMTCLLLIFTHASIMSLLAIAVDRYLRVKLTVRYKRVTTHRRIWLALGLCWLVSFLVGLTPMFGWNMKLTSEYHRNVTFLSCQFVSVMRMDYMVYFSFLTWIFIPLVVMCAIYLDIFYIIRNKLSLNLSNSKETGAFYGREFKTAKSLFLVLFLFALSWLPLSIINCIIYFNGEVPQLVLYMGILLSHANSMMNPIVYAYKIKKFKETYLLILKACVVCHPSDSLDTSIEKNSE

[1] = target: T2, Alpha-1A adrenergic receptor (Homo sapiens, UniProt P35348); assay type: functional, cell-based
T2 sequence (P35348 whole entry): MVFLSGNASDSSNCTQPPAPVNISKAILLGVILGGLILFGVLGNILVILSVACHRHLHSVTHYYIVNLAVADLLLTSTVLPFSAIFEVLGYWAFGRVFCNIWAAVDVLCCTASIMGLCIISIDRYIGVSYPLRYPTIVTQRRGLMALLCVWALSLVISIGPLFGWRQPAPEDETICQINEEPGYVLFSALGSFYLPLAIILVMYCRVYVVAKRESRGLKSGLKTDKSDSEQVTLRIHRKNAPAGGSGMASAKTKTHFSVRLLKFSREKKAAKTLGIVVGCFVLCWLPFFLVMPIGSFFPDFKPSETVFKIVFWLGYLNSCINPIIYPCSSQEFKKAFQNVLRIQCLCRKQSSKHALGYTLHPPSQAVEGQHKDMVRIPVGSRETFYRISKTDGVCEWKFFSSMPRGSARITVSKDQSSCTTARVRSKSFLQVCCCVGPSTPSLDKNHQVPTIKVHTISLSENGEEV

[2] = target: T3, Gastrin/cholecystokinin type B receptor (Homo sapiens, UniProt P32239)
T3 sequence (P32239 whole entry): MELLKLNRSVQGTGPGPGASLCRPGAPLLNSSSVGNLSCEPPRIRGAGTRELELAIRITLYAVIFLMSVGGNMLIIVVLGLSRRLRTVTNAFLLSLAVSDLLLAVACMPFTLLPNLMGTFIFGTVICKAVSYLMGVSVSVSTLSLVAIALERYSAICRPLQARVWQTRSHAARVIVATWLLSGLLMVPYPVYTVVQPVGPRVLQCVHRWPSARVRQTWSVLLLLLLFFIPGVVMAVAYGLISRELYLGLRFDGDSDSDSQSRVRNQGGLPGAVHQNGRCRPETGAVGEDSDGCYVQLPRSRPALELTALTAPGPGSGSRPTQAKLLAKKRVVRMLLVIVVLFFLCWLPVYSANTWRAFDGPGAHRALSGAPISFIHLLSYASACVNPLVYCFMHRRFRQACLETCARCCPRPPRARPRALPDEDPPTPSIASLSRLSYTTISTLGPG

[3] = target: Neuronal acetylcholine receptor subunit alpha-4 (Homo sapiens, UniProt P43681)
[4] = target: T4, 5-hydroxytryptamine receptor 1A (Homo sapiens, UniProt P08908); assay type: functional, cell-based
T4 sequence (P08908 whole entry): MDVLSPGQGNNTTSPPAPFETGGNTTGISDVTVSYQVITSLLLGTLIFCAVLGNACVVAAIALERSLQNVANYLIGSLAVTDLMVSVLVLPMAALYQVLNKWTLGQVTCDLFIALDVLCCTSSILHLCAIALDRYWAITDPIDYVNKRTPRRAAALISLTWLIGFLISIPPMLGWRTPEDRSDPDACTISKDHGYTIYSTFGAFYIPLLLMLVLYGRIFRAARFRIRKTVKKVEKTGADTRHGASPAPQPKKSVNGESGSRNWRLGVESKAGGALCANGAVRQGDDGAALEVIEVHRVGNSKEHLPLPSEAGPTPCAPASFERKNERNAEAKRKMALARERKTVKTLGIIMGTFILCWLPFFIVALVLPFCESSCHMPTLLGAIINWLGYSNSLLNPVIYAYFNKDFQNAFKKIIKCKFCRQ

[5] = target: 5-hydroxytryptamine receptor 2B (Homo sapiens, UniProt P41595); assay type: functional, cell-based
[6] = target: Delta-type opioid receptor (Homo sapiens, UniProt P41143)
[7] = target: 3',5'-cyclic-AMP phosphodiesterase 4D (Homo sapiens, UniProt Q08499); assay type: functional
[8] = target: T5, Equilibrative nucleoside transporter 1 (Homo sapiens, UniProt Q99808)
T5 sequence (Q99808 whole entry): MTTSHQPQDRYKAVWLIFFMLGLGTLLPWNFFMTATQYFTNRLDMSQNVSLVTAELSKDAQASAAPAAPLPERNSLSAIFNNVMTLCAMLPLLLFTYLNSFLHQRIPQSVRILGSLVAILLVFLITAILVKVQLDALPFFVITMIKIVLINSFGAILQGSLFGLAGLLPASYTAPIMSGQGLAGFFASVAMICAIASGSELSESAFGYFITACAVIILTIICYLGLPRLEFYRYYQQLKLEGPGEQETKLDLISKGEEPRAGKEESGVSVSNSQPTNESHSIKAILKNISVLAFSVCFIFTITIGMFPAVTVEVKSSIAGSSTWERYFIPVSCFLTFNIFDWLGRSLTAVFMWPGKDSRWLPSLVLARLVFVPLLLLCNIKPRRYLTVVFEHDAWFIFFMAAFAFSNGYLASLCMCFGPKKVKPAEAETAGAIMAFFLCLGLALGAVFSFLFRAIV

[9] = target: cGMP-inhibited 3',5'-cyclic phosphodiesterase 3A (Homo sapiens, UniProt Q14432); assay type: functional
Also: assay procedure not described here.

Sequence of Adenosine receptor A2a (P29274 whole entry): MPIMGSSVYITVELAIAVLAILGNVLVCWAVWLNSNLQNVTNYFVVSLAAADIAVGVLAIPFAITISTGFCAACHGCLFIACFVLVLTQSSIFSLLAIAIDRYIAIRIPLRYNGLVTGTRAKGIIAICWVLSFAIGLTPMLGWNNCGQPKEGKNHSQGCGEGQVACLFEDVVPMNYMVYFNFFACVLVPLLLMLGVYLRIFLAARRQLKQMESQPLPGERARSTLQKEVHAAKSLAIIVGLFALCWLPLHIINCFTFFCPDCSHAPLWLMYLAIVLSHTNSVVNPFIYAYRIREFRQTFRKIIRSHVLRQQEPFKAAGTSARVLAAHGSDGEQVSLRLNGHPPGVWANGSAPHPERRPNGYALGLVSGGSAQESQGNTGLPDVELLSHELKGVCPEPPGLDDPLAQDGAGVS
Sequence of cGMP-inhibited 3',5'-cyclic phosphodiesterase 3A (Q14432 whole entry): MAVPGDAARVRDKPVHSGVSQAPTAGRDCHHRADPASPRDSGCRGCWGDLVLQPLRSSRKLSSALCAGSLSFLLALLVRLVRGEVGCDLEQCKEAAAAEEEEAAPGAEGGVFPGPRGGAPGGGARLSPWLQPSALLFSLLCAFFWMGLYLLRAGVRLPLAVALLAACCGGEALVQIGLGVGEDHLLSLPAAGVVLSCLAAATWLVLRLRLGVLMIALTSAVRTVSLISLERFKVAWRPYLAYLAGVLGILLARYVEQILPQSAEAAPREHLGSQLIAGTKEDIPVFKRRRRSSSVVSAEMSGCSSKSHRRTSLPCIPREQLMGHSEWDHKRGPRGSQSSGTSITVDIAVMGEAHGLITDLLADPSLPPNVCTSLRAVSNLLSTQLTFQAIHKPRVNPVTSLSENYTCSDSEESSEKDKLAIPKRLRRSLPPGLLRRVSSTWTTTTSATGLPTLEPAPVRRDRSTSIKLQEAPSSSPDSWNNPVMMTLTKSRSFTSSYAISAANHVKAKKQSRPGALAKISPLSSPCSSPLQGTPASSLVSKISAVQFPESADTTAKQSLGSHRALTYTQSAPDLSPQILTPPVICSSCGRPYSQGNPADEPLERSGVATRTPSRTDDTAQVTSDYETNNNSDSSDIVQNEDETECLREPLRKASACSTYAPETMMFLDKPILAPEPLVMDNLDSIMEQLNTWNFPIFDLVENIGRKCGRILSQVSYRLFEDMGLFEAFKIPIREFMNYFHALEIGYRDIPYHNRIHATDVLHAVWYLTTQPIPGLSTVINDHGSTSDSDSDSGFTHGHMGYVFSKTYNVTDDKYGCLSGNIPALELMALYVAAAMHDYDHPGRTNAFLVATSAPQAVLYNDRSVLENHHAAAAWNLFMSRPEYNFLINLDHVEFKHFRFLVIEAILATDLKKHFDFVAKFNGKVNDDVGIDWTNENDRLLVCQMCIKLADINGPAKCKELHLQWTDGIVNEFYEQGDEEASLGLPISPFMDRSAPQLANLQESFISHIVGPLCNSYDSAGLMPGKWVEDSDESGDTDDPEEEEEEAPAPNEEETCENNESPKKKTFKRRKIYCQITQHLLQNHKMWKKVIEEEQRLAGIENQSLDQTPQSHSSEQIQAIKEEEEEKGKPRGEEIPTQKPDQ
Sequence of 3',5'-cyclic-AMP phosphodiesterase 4D (Q08499 whole entry): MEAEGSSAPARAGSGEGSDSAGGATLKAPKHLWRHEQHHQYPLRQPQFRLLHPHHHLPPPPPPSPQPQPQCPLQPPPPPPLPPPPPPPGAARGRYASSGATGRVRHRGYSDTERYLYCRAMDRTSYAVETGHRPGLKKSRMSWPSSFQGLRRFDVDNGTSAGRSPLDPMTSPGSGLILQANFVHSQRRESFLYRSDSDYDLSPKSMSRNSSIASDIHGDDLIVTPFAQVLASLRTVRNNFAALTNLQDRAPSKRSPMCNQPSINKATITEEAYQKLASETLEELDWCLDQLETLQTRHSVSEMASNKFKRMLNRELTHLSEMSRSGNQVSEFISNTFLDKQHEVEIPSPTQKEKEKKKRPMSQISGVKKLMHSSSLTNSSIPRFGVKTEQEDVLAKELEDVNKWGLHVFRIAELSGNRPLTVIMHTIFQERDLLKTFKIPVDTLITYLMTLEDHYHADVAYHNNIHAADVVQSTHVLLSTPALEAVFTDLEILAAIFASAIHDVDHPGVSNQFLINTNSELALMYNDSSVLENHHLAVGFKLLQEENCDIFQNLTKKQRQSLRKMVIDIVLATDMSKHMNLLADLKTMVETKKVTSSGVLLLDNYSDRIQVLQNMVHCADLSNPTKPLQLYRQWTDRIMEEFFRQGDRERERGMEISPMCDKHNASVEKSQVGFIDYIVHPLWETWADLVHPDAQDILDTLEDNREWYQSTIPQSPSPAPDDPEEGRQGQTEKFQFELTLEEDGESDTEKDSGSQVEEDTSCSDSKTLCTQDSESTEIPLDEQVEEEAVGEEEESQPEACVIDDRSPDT
Sequence of Neuronal acetylcholine receptor subunit alpha-4 (P43681 whole entry): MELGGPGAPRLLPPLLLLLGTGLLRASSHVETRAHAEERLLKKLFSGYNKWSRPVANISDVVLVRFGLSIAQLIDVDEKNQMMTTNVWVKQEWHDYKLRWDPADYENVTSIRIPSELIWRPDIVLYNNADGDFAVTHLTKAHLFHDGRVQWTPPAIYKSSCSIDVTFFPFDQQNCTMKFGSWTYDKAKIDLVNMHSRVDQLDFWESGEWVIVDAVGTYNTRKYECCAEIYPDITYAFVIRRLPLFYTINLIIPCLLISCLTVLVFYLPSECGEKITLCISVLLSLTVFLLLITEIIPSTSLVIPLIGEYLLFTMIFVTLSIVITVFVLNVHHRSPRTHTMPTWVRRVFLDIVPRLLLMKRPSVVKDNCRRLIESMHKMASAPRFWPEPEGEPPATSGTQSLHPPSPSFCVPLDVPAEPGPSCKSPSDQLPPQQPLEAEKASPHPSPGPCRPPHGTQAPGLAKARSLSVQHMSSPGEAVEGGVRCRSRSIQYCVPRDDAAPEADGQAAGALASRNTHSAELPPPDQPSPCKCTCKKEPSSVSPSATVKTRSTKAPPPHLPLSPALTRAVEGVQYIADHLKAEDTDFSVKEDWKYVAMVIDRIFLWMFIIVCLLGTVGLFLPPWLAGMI
Sequence of 5-hydroxytryptamine receptor 2B (P41595 whole entry): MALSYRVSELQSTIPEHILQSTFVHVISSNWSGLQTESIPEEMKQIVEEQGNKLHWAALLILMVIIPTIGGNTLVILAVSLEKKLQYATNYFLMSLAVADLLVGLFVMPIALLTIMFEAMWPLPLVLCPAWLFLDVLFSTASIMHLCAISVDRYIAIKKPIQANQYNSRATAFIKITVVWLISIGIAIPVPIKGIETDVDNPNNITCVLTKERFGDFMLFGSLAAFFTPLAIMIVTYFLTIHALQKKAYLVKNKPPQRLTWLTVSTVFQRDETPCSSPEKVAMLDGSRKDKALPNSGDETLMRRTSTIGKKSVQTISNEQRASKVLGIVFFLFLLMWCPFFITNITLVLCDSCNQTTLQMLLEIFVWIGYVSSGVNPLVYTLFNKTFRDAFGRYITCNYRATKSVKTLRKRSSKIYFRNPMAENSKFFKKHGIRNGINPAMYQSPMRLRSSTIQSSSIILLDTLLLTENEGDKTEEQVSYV
Sequence of Delta-type opioid receptor (P41143 whole entry): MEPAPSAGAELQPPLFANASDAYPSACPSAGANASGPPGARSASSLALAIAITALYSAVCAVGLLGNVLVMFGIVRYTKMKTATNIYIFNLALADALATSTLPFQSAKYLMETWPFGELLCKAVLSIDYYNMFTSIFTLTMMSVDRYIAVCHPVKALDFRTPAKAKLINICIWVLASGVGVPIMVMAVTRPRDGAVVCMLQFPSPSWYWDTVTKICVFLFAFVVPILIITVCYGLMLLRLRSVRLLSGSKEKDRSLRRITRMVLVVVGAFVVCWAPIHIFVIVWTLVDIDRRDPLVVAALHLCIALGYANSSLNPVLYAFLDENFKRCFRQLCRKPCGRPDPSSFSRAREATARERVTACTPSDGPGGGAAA

SMILES	AC50 (Adenosine receptor A2a) [µM]	AC50 (Adenosine receptor A3) [µM]	AC50 [1] [µM]	AC50 [2] [µM]	AC50 [3] [µM]	AC50 [4] [µM]	AC50 [5] [µM]	AC50 [6] [µM]	AC50 [7] [µM]	AC50 [8] [µM]	AC50 [9] [µM]
COc1ccc(-c2noc(CC(=O)O)c2-c2ccc(OC)cc2)cc1 [MOFEZOLAC]	> 30	> 30	> 30	> 10	> 30	> 30	> 30	> 30	> 30	> 30	13
CC(=O)O[C@H](CC(=O)[O-])C[N+](C)(C)C [ACETYLCARNITINE]	> 30	> 30	> 30	> 30	> 30	> 30	> 30	> 30	> 30	> 30	> 30
O=C(O)c1ccccc1Nc1cc(Cl)ccc1C(=O)O [LOBENZARIT]	> 30	> 30	> 30	> 10	> 30	> 30	> 30	> 30	> 30	> 30	> 30
C=C[C@@]1(C)CC(=O)[C@]2(O)[C@@]3(C)[C@@H](O)CCC(C)(C)[C@@H]3[C@H](O)[C@H](OC(C)=O)[C@@]2(C)O1 [COLFORSIN]	> 30	> 30	> 30	> 30	> 30	> 30	> 30	> 30	> 30	> 30	> 30
CCN(CC)C(=O)Nc1ccc(OCC(O)CNC(C)(C)C)c(C(C)=O)c1 (stereo unspecified) [CELIPROLOL]	> 30	> 30	> 30	> 30	> 30	> 30	> 30	> 30	> 30	> 30	> 30
CCN(CC)CCN1C(=O)CN=C(c2ccccc2F)c2cc(Cl)ccc21 [FLURAZEPAM]	> 30	> 30	> 30	> 30	> 10	> 30	> 10	> 30	> 30	> 30	> 30
CC(=O)OCC(=O)[C@@]1(O)[C@H](C)C[C@H]2[C@@H]3CCC4=CC(=O)C=C[C@]4(C)[C@@]3(F)[C@@H](O)C[C@@]21C [DEXAMETHASONE ACETATE]	> 30	> 30	> 30	> 30	> 10	> 10	> 10	> 30	> 30	> 30	> 30
COc1ccc2nc3cc(Cl)ccc3c(Nc3cc(CN4CCCC4)c(O)c(CN4CCCC4)c3)c2n1 [PYRONARIDINE]	> 30	15	> 30	> 30	26	> 30	> 30	> 30	24	21	5.7
CCCCCC(=O)O[C@]1(C(C)=O)CC[C@H]2[C@@H]3CCC4=CC(=O)CC[C@]4(C)[C@H]3CC[C@@]21C [HYDROXYPROGESTERONE CAPROATE]	> 30	18.4	> 30	> 30	> 30	> 30	> 30	> 30	25	> 30	30
CCN(CC)CCNC(=O)c1cc(S(C)(=O)=O)ccc1OC [TIAPRIDE]	> 30	> 30	> 30	> 30	> 30	> 30	> 30	> 30	> 30	> 30	> 30
NC1CCN(c2nc3c(cc2F)c(=O)c(C(=O)O)cn3-c2ccc(F)cc2F)C1 (stereo unspecified) [TOSUFLOXACIN]	> 30	> 30	> 30	> 30	> 30	> 30	> 30	> 30	> 30	> 30	> 30
CC1=C(C)C(=O)C(C(CCCCCC(=O)O)c2ccccc2)=C(C)C1=O (stereo unspecified) [SERATRODAST]	> 30	> 30	> 30	> 30	> 30	> 30	> 30	> 30	22	> 30	25
C[N@+]1(CCF)[C@@H]2CC[C@H]1C[C@@H](OC(=O)C(O)(c1ccccc1)c1ccccc1)C2	> 30	> 30	> 30	> 30	> 30	> 30	> 30	> 30	> 30	> 30	> 30
CC(=O)SC[C@@H](C)C(=O)N1CCC[C@H]1C(=O)N[C@@H](Cc1ccccc1)C(=O)O	> 30	> 30	> 30	> 30	> 30	> 30	> 30	> 30	> 30	> 30	> 30
CCOC(=O)O[C@]1(C(=O)OCCl)CC[C@H]2[C@@H]3CCC4=CC(=O)C=C[C@]4(C)[C@H]3[C@@H](O)C[C@@]21C [LOTEPREDNOL ETABONATE]	> 30	> 30	> 30	> 30	> 30	> 30	> 30	> 30	> 30	> 30	> 30
O=C(O)CCNC(=O)c1ccccc1 [BETAMIPRON]	> 30	> 30	> 30	> 30	> 30	> 30	> 30	> 30	> 30	> 30	> 30
